Laboratory results as given in BigSolDB 2.1.

CC1(C)[C@H](C(=O)O)[C@@H]1/C=C(\Cl)C(F)(F)F (racemic)
solubility (mole fraction)
Conditions	283.15 K	288.15 K	293.15 K	298.15 K	303.15 K	308.15 K	313.15 K	318.15 K	323.15 K
in cyclohexane	0.00261	0.00304	0.00447	0.00592	0.00821	0.0119	0.0175	0.0258	0.0384
in ethanol	0.077	0.0817	0.0944	0.106	0.121	0.143	0.168	0.195	0.228
in ethyl acetate	0.0818	0.0938	0.109	0.123	0.141	0.165	0.186	0.217	0.243
in isobutanol	0.0701	0.0843	0.099	0.116	0.13	0.147	0.168	0.2	0.233
in methanol	0.058	0.0664	0.0722	0.0813	0.098	0.119	0.139	0.166	0.191
in methyl acetate	0.0727	0.0848	0.0976	0.114	0.129	0.151	0.171	0.2	0.226
in n-butanol	0.0748	0.0848	0.0964	0.11	0.129	0.149	0.167	0.203	0.239
in n-butyl acetate	0.089	0.102	0.119	0.135	0.153	0.175	0.195	0.223	0.247
in n-propanol	0.0753	0.0829	0.0944	0.109	0.13	0.142	0.173	0.213	0.252
in sec-butanol	0.0987	0.111	0.138	0.161	0.179	0.204	0.231	0.265	0.285
in tert-butanol	0.13	0.144	0.169	0.197	0.224	0.247	0.271	0.3	0.331
